The Ki is the dissociation constant of the complex between target and ligand, obtained from inhibition or displacement. For orientation: IC50 means the concentration that inhibits the measured activity by half.

SMILES strings stand for the structures. Where a name gives a salt, the structure may show the parent alone. A value given as a limit tells only on which side of the number the result lay.

This passage reports Ki and IC50 results from US9073876B2, “Flap modulators” (JANSSEN PHARMACEUTICA NV, priority 2013, dated 2015).

One experiment deals with human FLAP (Homo sapiens (Human), UniProt P20292). Description: FLAP binding assay (HTRF). The settings on record: human FLAP-containing membranes, HTRF format; average of two assay plates, duplicates; read-out: FLAP Binding wild type HTRF Ki. Summed up: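 Binding values are averages from two separate assay plates, with each sample run in duplicate per plate. Data are expressed as an HTRF ratio.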
A general note: TR-FRET usually uses a lanthanide donor and a delayed reading to cut background.

Experiment [1] deals with leukotriene pathway in human whole blood (LTB4 levels). The experiment can be described thus: Human whole blood assay (LTB4). The class given is cell-based. As to conditions: human whole blood diluted 1:1 in RPMI, stimulated with calcium ionophore A23187; single replicate. Summed up: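 Blood (heparin) diluted 1:1 RPMI; compound pre-incubation 15 min, 37° Celsius; A23187 7 μg/mL, 30 min, 37° Celsius; plasma LTB4 by commercial kit. IC50 via 4-parameter equation.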

Sequence of human FLAP (P20292 whole entry): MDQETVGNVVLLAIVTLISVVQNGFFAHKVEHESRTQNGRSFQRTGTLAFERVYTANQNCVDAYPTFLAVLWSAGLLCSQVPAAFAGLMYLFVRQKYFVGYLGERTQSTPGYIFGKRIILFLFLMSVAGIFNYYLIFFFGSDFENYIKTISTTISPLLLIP

Take `Nc1cnc(-c2ccc(C3CCC3)c(Oc3ccncn3)c2F)cn1` [Example 260, 5-(4-Cyclobutyl-2-fluoro-3-(pyrimidin-4-yloxy)phenyl)pyrazin-2-amine]: the Ki at human FLAP was found to be 19.9 nM. Besides, the IC50 in experiment [1] worked out at 197 nM.
For the compound `CC(C)CNc1nccc(Oc2c(C3CCC3)ccc(-c3cnc(N)cn3)c2F)n1` [Example 261, 4-(3-(5-Aminopyrazin-2-yl)-6-cyclobutyl-2-fluorophenoxy)-N-isobutylpyrimidin-2-amine trifluoroacetic acid salt], the Ki on human FLAP was found to be 1.3 nM. The IC50 in experiment [1] was 40.1 nM.
Consider `COC(=O)c1ccc2oc(COc3c(C4CCC4)ccc(-c4cnc(N)cn4)c3F)nc2c1` [Example 262, Methyl 2-{[3-(5-aminopyrazin-2-yl)-6-cyclobutyl-2-fluorophenoxy]methyl}-1,3-benzoxazole-5-carboxylate], for which the Ki on human FLAP came out at 19.6 nM. For the same compound, the IC50 in experiment [1] worked out at 160 nM.
In the same order, the values of `COC(=O)c1ccc(O)c(NC(=O)COc2c(C3CCC3)ccc(-c3cnc(N)cn3)c2F)c1` [Example 263, Methyl 3-({[3-(5-aminopyrazin-2-yl)-6-cyclobutyl-2-fluorophenoxy]acetyl}amino)-4-hydroxybenzoate] are 138 nM and 1960 nM.
`CNc1nc(C)cc(Oc2c(C3CCC3)ccc(-c3cnc(N)cn3)c2F)n1` [Example 269, 4-[3-(5-Aminopyrazin-2-yl)-6-cyclobutyl-2-fluorophenoxy]-N,6-dimethylpyrimidin-2-amine]: the Ki on human FLAP was determined as 0.9 nM. The IC50 in experiment [1] worked out at 15.1 nM.
For the compound `Nc1cnc(-c2ccc(C3CCC3)c(Oc3nc(N)c4ccccc4n3)c2F)cn1` [Example 272, 2-[3-(5-Aminopyrazin-2-yl)-6-cyclobutyl-2-fluorophenoxy]quinazolin-4-amine], the Ki at human FLAP came out at 0.5 nM. Also, the IC50 in experiment [1] was determined as 41.9 nM.
`N#CCOc1c(C2CCC2)ccc(-c2cnc(N)cn2)c1F` [Example 276, [3-(5-Aminopyrazin-2-yl)-6-cyclobutyl-2-fluorophenoxy]acetonitrile]: the Ki on human FLAP was 39.2 nM. Further, the half-inhibitory concentration (IC50) in experiment [1] turned out to be 406 nM.
For `Nc1cnc(-c2ccc(C3CCC3)c(Oc3cccnn3)c2F)cn1` [Example 277, 5-[4-Cyclobutyl-2-fluoro-3-(pyridazin-3-yloxy)phenyl]pyrazin-2-amine], the Ki at human FLAP is 17.7 nM. The IC50 in experiment [1] turned out to be 135 nM.
In the same order, the values of `Nc1cnc(-c2ccc(C3CC3)c(Oc3ncccn3)c2F)cn1` [Example 278, 5-[4-Cyclopropyl-2-fluoro-3-(pyrimidin-2-yloxy)phenyl]pyrazin-2-amine] are 100 nM and 216 nM.
In the case of `Nc1cnc(-c2ccc(C3CC3)c(Oc3nccc(N)n3)c2F)cn1` [Example 279, 2-[3-(5-Aminopyrazin-2-yl)-6-cyclopropyl-2-fluorophenoxy]pyrimidin-4-amine], the Ki at human FLAP is 67.5 nM. Further, the 50% inhibitory concentration (IC50) in experiment [1] was 147 nM.
`COC(=O)c1coc(COc2c(C3CCC3)ccc(-c3cnc(N)cn3)c2F)n1` [Example 281, Methyl 2-{[3-(5-aminopyrazin-2-yl)-6-cyclobutyl-2-fluorophenoxy]methyl}-1,3-oxazole-4-carboxylate trifluoroacetic acid salt]: on human FLAP, the inhibitory constant (Ki) came to 101 nM. For the same compound, the IC50 in experiment [1] stood at 370 nM.
For the compound `Nc1cnc(-c2ccc(C3CCC3)c(OCc3nc(C(=O)O)co3)c2F)cn1` [Example 282, 2-{[3-(5-Aminopyrazin-2-yl)-6-cyclobutyl-2-fluorophenoxy]methyl}-1,3-oxazole-4-carboxylic acid trifluoroacetic acid salt], the Ki on human FLAP amounted to 29.4 nM. In experiment [1], the IC50 was > 10000 nM.
The like results for `Nc1cnc(-c2ccc(C3CCC3)c(OCc3ccc(Cl)cn3)c2F)cn1` [Example 289, 5-{3-[(5-Chloropyridin-2-yl)methoxy]-4-cyclobutyl-2-fluorophenyl}pyrazin-2-amine trifluoroacetic acid salt] were, in that order, 229 nM and 782 nM.
For the compound `N#Cc1ccc(COc2c(C3CCC3)ccc(-c3cnc(N)cn3)c2F)cn1` [Example 290, 5-{[3-(5-Aminopyrazin-2-yl)-6-cyclobutyl-2-fluorophenoxy]methyl}pyridine-2-carbonitrile trifluoroacetic acid salt], the Ki at human FLAP came out at 39.9 nM. In addition, the IC50 in experiment [1] is 506 nM.
For `Cc1cc(COc2c(C3CCC3)ccc(-c3cnc(N)cn3)c2F)no1` [Example 291, 5-{4-Cyclobutyl-2-fluoro-3-[(5-methylisoxazol-3-yl)methoxy]phenyl}pyrazin-2-amine trifluoroacetic acid salt], on human FLAP, the Ki came to 46.6 nM. The IC50 in experiment [1] is 576 nM.
On to `N#Cc1cccc(COc2c(C3CCC3)ccc(-c3cnc(N)cn3)c2F)n1` [Example 292, 6-{[3-(5-Aminopyrazin-2-yl)-6-cyclobutyl-2-fluorophenoxy]methyl}pyridine-2-carbonitrile trifluoroacetic acid salt], for which the Ki on human FLAP came out at 37.2 nM. In experiment [1], the IC50 was found to be 412 nM.
Take `Nc1cnc(-c2ccc(C3CCC3)c(OCCN3C(=O)c4ccccc4C3=O)c2F)cn1` [Example 293, 2-{2-[3-(5-aminopyrazin-2-yl)-6-cyclobutyl-2-fluorophenoxy]ethyl}-1H-isoindole-1,3(2H)-dione]: at human FLAP, the Ki is 16.5 nM. Also, in experiment [1], the IC50 was 1000 nM.
Take `Nc1cnc(-c2ccc(C3CCC3)c(OCCNc3cnccn3)c2F)cn1` [Example 295, 5-{4-Cyclobutyl-2-fluoro-3-[2-(pyrazin-2-ylamino)ethoxy]phenyl}pyrazin-2-amine trifluoroacetic acid salt]: the Ki at human FLAP turned out to be 4.2 nM. In addition, the IC50 in experiment [1] came to 149 nM.
Consider `Nc1cnc(-c2ccc(C3CCC3)c(OCCNc3ncccn3)c2F)cn1` [Example 296, N-{2-[3-(5-Aminopyrazin-2-yl)-6-cyclobutyl-2-fluorophenoxy]ethyl}pyrimidin-2-amine trifluoroacetic acid salt], for which the Ki on human FLAP worked out at 6.8 nM. The IC50 in experiment [1] turned out to be 350 nM.
In the case of `Nc1cnc(-c2ccc(C3CCC3)c(OCCNc3ccncn3)c2F)cn1` [Example 297, N-{2-[3-(5-Aminopyrazin-2-yl)-6-cyclobutyl-2-fluorophenoxy]ethyl}pyrimidin-4-amine], at human FLAP, the inhibition constant Ki is 14.4 nM. In addition, in experiment [1], the IC50 amounted to 263 nM.
As for `Nc1cnc(-c2ccc(C3CCC3)c(Oc3ncc(-c4cnc(N)nc4)cn3)c2F)cn1` [Example 313, 2′-[3-(5-Aminopyrazin-2-yl)-6-cyclobutyl-2-fluorophenoxy]-5,5′-bipyrimidin-2-amine], the Ki on human FLAP was 2.4 nM. Also, the IC50 in experiment [1] is 27 nM.
In the case of `CCc1ccc(-c2cnc(N)cn2)c(F)c1Oc1nccc(N)n1` [Example 317, 2-[3-(5-Aminopyrazin-2-yl)-6-ethyl-2-fluorophenoxy]pyrimidin-4-amine], the Ki at human FLAP was found to be 198 nM. For the same compound, in experiment [1], the IC50 was 464 nM.
Take `CC(C)c1ccc(-c2cnc(N)cn2)c(F)c1Oc1ncccn1` [Example 318, 5-[2-Fluoro-4-(1-methylethyl)-3-(pyrimidin-2-yloxy)phenyl]pyrazin-2-amine]: at human FLAP, the inhibition constant Ki turned out to be 58.1 nM. For the same compound, in experiment [1], the IC50 was found to be 103 nM.
In the same order, the values of `CCCc1ccc(-c2cnc(N)cn2)c(F)c1Oc1ncccn1` [Example 319, 5-[2-Fluoro-4-propyl-3-(pyrimidin-2-yloxy)phenyl]pyrazin-2-amine] are 337 nM and 284 nM.
For the compound `Nc1cnc(-c2ccc(CC3CCCCC3)c(Oc3ncccn3)c2F)cn1` [Example 321, 5-(4-(Cyclohexylmethyl)-2-fluoro-3-(pyrimidin-2-yloxy)phenyl)pyrazin-2-amine], the Ki on human FLAP came out at 116 nM. The IC50 in experiment [1] is > 10000 nM.
In the case of `CC(C)Cc1ccc(-c2cnc(N)cn2)c(F)c1Oc1ncccn1` [Example 323, 5-(2-Fluoro-4-isobutyl-3-(pyrimidin-2-yloxy)phenyl)pyrazin-2-amine], the Ki at human FLAP stood at 211 nM. The IC50 in experiment [1] was 141 nM.
In the case of `CC(C)(C)Cc1ccc(-c2cnc(N)cn2)c(F)c1Oc1ncccn1` [Example 324, 5-(2-Fluoro-4-neopentyl-3-(pyrimidin-2-yloxy)phenyl)pyrazin-2-amine], the Ki at human FLAP worked out at 73.8 nM. The IC50 in experiment [1] is 260 nM.
With `Nc1cnc(-c2ccc(C3CCCCC3)c(Oc3nccc(N)n3)c2F)cn1` [Example 325, 2-(3-(5-Aminopyrazin-2-yl)-6-cyclohexyl-2-fluorophenoxy)pyrimidin-4-amine], at human FLAP, the Ki was 9.5 nM. In addition, the 50% inhibitory concentration (IC50) in experiment [1] is 52.7 nM.
Turning to `CC(C)Cc1ccc(-c2cnc(N)cn2)c(F)c1Oc1nccc(N)n1` [Example 328, 2-(3-(5-Aminopyrazin-2-yl)-2-fluoro-6-isobutylphenoxy)pyrimidin-4-amine], the Ki on human FLAP stood at 113 nM. Besides, the half-maximal inhibitory concentration (IC50) in experiment [1] came to 312 nM.
As to `NC(=O)c1ncc(Oc2c(C3CCC3)ccc(-c3cnc(N)cn3)c2F)cn1` [Example 329, 5-(3-(5-Aminopyrazin-2-yl)-6-cyclobutyl-2-fluorophenoxy)pyrimidine-2-carboxamide], the Ki at human FLAP was found to be 9.7 nM. In experiment [1], the 50% inhibitory concentration (IC50) amounted to 39 nM.
On to `Cc1csc2ncnc(Oc3c(C4CCC4)ccc(-c4cnc(N)cn4)c3F)c12` [Example 331, 5-(4-Cyclobutyl-2-fluoro-3-((5-methylthieno[2,3-d]pyrimidin-4-yl)oxy)phenyl)pyrazin-2-amine], for which the Ki at human FLAP stood at 3.7 nM. The IC50 in experiment [1] came out at 12.9 nM.
For `Nc1cnc(-c2ccc(C3CCC3)c(OCCNc3ccnc(N)n3)c2F)cn1` [Example 332, N^4-(2-(3-(5-Aminopyrazin-2-yl)-6-cyclobutyl-2-fluoro-phenoxy)ethyl)pyrimidine-2,4-diamine], the Ki at human FLAP stood at 45.8 nM. Also, the IC50 in experiment [1] was 450 nM.
